Reference: patent US4049665A, “Unsymmetrical disulfides as antimicrobial agents” (Colgate-Palmolive Company, priority 1975, dated 1977)
Converted amounts (≈) assume the structure as drawn. Where two headings read alike, the source gives them in different places.

How the values were obtained:
A. niger = assay: two-fold serial dilution test, minimum inhibitory concentration (Table I); assay type: cell-based; details: Aspergillus niger, A. niger (Mold), 1% solution in 95% ethyl alcohol
Text: (§1) *Data indicates minimum inhibitory concentration in parts per million
(§2) tested by the two-fold serial dilution text method utilizing 1% solution
(§3) of the test material in 95% ethyl alcohol.

E. coli = assay: as above; assay type: cell-based; details: Escherichia coli, read-out: minimum inhibitory concentration
Text: as §1, §2, §3

Ps. aeruginosa = assay: as above; assay type: cell-based; details: Pseudomonas aeruginosa, Ps. aeruginosa (Gram Negative), 1% solution in 95% ethyl alcohol
Text: as §1, §2, §3

S. aureus = assay: as above; assay type: cell-based; details: Staphylococcus aureus, read-out: minimum inhibitory concentration
Text: as §1, §2, §3

Str. mitis = assay: as above; assay type: cell-based; details: Streptococcus mitis, Str. mitis (Gram Positive), 1% solution in 95% ethyl alcohol
Text: as §1, §2, §3

C. albicans = assay: as above; assay type: cell-based, Candidia albicans; details: Candida albicans, C. albicans (Yeast), 1% solution in 95% ethyl alcohol
Text: as §1, §2, §3

microorganisms = assay: antimicrobial properties of shampoo compositions; details: substituted for 4-chlorphenyl 1-oxo-2-pyridyl disulfide in shampoo of Example VII
P. ovale = assay: two-fold serial dilution test, minimum inhibitory concentration (Table I); assay type: cell-based; details: Pityrosporum ovale, P. ovale (Yeast), 1% solution in 95% ethyl alcohol
Text: as §1, §2, §3

T. mentagrophytes = assay: as above; assay type: cell-based; details: Trichophyton mentagrophytes, T. mentagrophytes (Mold), 1% solution in 95% ethyl alcohol
Text: as §1, §2, §3

soil and foliage fungi = details: U.S. Pat. No. 2,922,790; soil and foliage fungicides; cited from earlier work

Work on `[O-][n+]1ccccc1SSc1cccc[n+]1[O-]` yielded an MIC (A. niger) of 62.5 µg/mL (≈ 248 µM), an MIC (E. coli) of 62.5 µg/mL (≈ 248 µM) and an MIC (Ps. aeruginosa) of 250 µg/mL (≈ 991 µM). For the same molecule, the MIC (S. aureus) was 7.8 µg/mL (≈ 30.9 µM), the MIC (Str. mitis) was 31.2 µg/mL (≈ 124 µM) and the MIC (C. albicans) was 31.2 µg/mL (≈ 124 µM).
In the case of `CCCCCCCCCCCCSSc1cccc[n+]1[O-]` [dodecyl 1-oxo2-pyridyl disulfide, Dodecyl 1-oxo-2-pyridyl disulfide], the “antimicrobial properties of the resultant shampoo” value (from here on “antimicrobial properties”) (microorganisms) is reported as “substantially similar antimicrobial properties”.
`[O-][n+]1ccccc1SSCc1ccc(Cl)cc1` showed an MIC (P. ovale) of 1.9 µg/mL (≈ 6.69 µM).
Molecule `[O-][n+]1ccccc1SSCc1ccc(Cl)c(Cl)c1` has an MIC (P. ovale) of 3.9 µg/mL (≈ 12.3 µM).
`[O-][n+]1ccccc1SSc1ccc(Cl)cc1` gave an MIC (P. ovale) of 3.9 µg/mL (≈ 14.5 µM).
For `CCCCCCSSc1cccc[n+]1[O-]` [hexyl 1-oxo-2-pyridyl disulfide, Hexyl 1-oxo-2-pyridyl disulfide], the “antimicrobial properties” value (microorganisms) was “substantially similar antimicrobial properties”.
For `COc1ccc(SSc2cccc[n+]2[O-])cc1` [p-methoxyphenyl 1oxo-2-pyridyl disulfide, p-Methoxyphenyl 1-oxo-2-pyridyl disulfide], the “antimicrobial properties” value (microorganisms) was “substantially similar antimicrobial properties”.
In the case of Decenyl 1-oxo-2-pyridyl disulfide, the “antimicrobial properties” value (microorganisms) is reported as “substantially similar antimicrobial properties”.
`[O-][n+]1ccccc1SSCc1ccc(Cl)cc1Cl` gave an MIC (A. niger) of 15.6 µg/mL (≈ 49 µM), an MIC (E. coli) of 31.2 µg/mL (≈ 98 µM) and an MIC (Ps. aeruginosa) of 125 µg/mL (≈ 393 µM). The MIC (S. aureus) was less than 0.5 µg/mL, the MIC (Str. mitis) was 7.8 µg/mL (≈ 24.5 µM) and the MIC (T. mentagrophytes) was 3.9 µg/mL (≈ 12.3 µM). For the same molecule, the MIC (C. albicans) was 7.8 µg/mL (≈ 24.5 µM).
Molecule `[O-][n+]1ccccc1SSc1ccccc1` has an MIC (A. niger) of 15.6 µg/mL (≈ 66.3 µM), an MIC (E. coli; E. coli (Gram Negative), 1% solution in 95% ethyl alcohol, two-fold serial dilution) of 31.2 µg/mL (≈ 133 µM) and an MIC (P. ovale) of 0.1 µg/mL (≈ 0.425 µM). For the same molecule, the MIC (Ps. aeruginosa) was 250 µg/mL (≈ 1060 µM), the MIC (S. aureus; S. aureus (Gram Positive), 1% solution in 95% ethyl alcohol, two-fold serial dilution) was 3.9 µg/mL (≈ 16.6 µM) and the MIC (Str. mitis) was 15.6 µg/mL (≈ 66.3 µM). The MIC (T. mentagrophytes) was 15.6 µg/mL (≈ 66.3 µM) and the MIC (C. albicans) was greater than 1000 µg/mL.
In the case of “pyridine-1-oxide trichloromethyl disulfide”, the “pesticidal properties” value (soil and foliage fungi) is given as “pesticidal properties desirable in soil and foliage fungicides”.
In the case of `[O-][n+]1ccccc1SSc1ccc(Cl)c(Cl)c1`, the MIC (P. ovale) is reported as 15.6 µg/mL (≈ 51.3 µM).
